In patent US20250154212A1, “METHOD OF DISRUPTING MEMORY AND LIPOPEPTIDE FOR USE IN SUCH METHOD” (The Research Foundation for The State University of New York, priority 2023, published 2025):
“Also recorded” adds a separate entry of the source. Where no end group is shown, it is not given here. The star is where a group is joined. Myristoyl = CCCCCCCCCCCCCC(=O)*

What was measured:
[1] = test system: late-LTP in CA1 st. radiatum of hippocampal slices; assay: Late-LTP recording (fEPSP) in hippocampal slices of wild-type mice; format: cell-based, mouse; settings: for effect on established late-LTP (fEPSP slope), tetanized pathway / effect on baseline synaptic transmission, untetanized pathway: wild-type mice; for effect on established late-LTP (fEPSP slope), tetanized pathway: 10 μM applied to the bath 3 h post-tetanization; for effect on baseline synaptic transmission, untetanized pathway: 10 μM in bath; for potentiation after drug washout: drug applied 3 h starting 3 h post-tetanization, then 4-h washout
Experimental: (§1) Acute mouse hippocampal slices (450 μm) were prepared as previously described (17, 73). Hippocampi from 2-6-month-old male C57/B6 or PKM ζ-null mice as previously described (17) were dissected, bathed in ice-cold dissection buffer, and sliced with a McIlwain tissue slicer in a cold room (4° C.). The dissection buffer contained (in mM): 125 NaCl, 2.5 KCl, 1.25 NaH2PO4, 26 NaHCO3, 11 glucose, 10 MgCl2, and 0.5 CaCl2), and was bubbled with 95% O2/5% CO2 to maintain pH at 7.4. After dissection the slices were immediately transferred into an Oslo-type interface recording chamber (31.5±1° C.) (73). The recording superfusate consisted of (in mM): 118 NaCl, 3.5 KCl, 2.5 CaCl2), 1.3 MgSO4, 1.25 NaH2PO4, 24 NaHCO3, and 15 glucose, bubbled with 95% O2/5% CO2, with a flow rate of 0.5 ml/min. In a subset of experiments a custom-made recirculation system employing piezoelectric pumps was used for recycling the superfusate (Bartels Mikrotechnik GmbH, Dortmund, Germany) (73).
(§2) Field EPSPs were recorded with a glass extracellular recording electrode (2-5 M (2) placed in the CA1 st. radiatum, and concentric bipolar stimulating electrodes (CBBRE75 and 30200; FHC, Bowdoin, ME) were placed on either side within CA3 or CA1. Test stimulation rate was once every 30 sec, alternating every 15 sec between stimulating electrodes. Based upon a pre-established exclusion criterion, a slice was not used if fEPSP spike threshold was <2 mV on initial input-output analysis. Pathway independence was confirmed by the absence of paired-pulse facilitation between the two pathways. A single stimulating electrode was used for PLA/immunocytochemistry with a test stimulation rate of once every 30 sec. The high-frequency stimulation, optimized to produce a relatively rapid onset of protein synthesis-dependent late-LTP (74), consisted of two 100 Hz-1 s tetanic trains, at 25% of spike threshold, spaced 20 sec apart. The maximum slope of the rise of the fEPSP was analyzed on a PC using the WinLTP data acquisition program (75).
(§3) Replicates are biological because there is only one measurement for each sample. Drug/vehicle comparisons were performed blindly. Sample sizes vary for the different experimental approaches (biochemistry, slice physiology, and behavior) and were established by power analyses based on effect size estimates from published work or preliminary experiments. The observed effect sizes for binary comparisons are reported as Cohen's d and as η^2p for ANOVA effects. Multi-factor comparisons were performed using ANOVA with repeated measures, as appropriate. Two-population Student's/tests were performed to compare protein immunofluorescence intensity between control and potentiated hippocampal slices. For LTP experiments, the responses were first normalized to the mean of the 30 min period prior to tetanization (or equivalent in control pathways), and then the means over 5 min periods were used for statistical comparisons (e.g., pre-tetanization, beginning and end of drug application). Paired Student's t tests were used to compare the change in the potentiated response at time points at the beginning and end of drug application. The degrees of freedom for the critical t values of the/tests and the F values of the ANOVAs are reported as subscripts. Post-hoc multiple comparisons were performed by Newman-Keuls tests as appropriate. Statistical significance was accepted at P<0.05 or appropriate Bonferroni correction for multiple comparisons.
Now we can test the central prediction of the KIBRA-PKMζ maintenance hypothesis that decoupling PKMζ from KIBRA reverses potentiation of activated synapses. We simultaneously recorded two independent synaptic pathways in st. radiatum within a hippocampal slice. We stimulated one pathway by high-frequency tetanization to induce late-LTP, and in the second pathway we recorded low-frequency test fEPSP responses for the equivalent time. […]

[2] = test system: late-LTP in hippocampal slices of PKMζ-null mice; assay: Late-LTP recording (fEPSP) in hippocampal slices of PKMζ-null mice; format: cell-based, mouse; settings: for effect on late-LTP, tetanized pathway: 10 μM applied 3 h post-tetanization; for effect on baseline synaptic transmission, untetanized pathway: 10 μM in bath
Experimental: as §1, §2
as §3, with “comparisons. […]” for “comparisons.”

| Compound | effect on established late-LTP (fEPSP slope), tetanized pathway [1] | effect on established late-LTP (fEPSP slope), tetanized pathway ([1]; listed as z-stat) | effect on baseline synaptic transmission, untetanized pathway [1] | effect on baseline synaptic transmission, untetanized pathway ([1]; listed as z-stat) | potentiation after drug washout ([1]; wild-type) | potentiation after drug washout ([1]; wild-type, listed as z-stat) | effect on late-LTP when drug is present at tetanization ([1]; wild-type, first pathway, 150 min post-tetanization with drug) | late-LTP in second pathway after washout ([1]; wild-type, tetanized after 1-h washout) | effect on late-LTP, tetanized pathway [2] | effect on late-LTP, tetanized pathway ([2]; listed as z-stat) | effect on baseline synaptic transmission, untetanized pathway [2] |
| --- | --- | --- | --- | --- | --- | --- | --- | --- | --- | --- | --- |
| O=S(=O)(O)c1cc(O)c2c(S(=O)(=O)O)cc(S(=O)(=O)O)cc2c1 [ζ-stat, 1-naphthol-3,6,8-trisulphonic acid] | reverses late-LTP maintenance | reverses late-LTP | without measurably affecting synaptic transmission | no effect on baseline synaptic transmission | reversal of potentiation persisted | potentiation does not return | suppresses late-LTP | late-LTP is induced and maintained in second pathway | has no effect on late-LTP maintenance | has no effect on late-LTP | has no effect on late-LTP or baseline synaptic transmission |
| myr-N-FVRNSLERRSVRMKRPS-C (Myristoyl-FVRNSLERRSVRMKRPS) [K-ZAP] | reverses late-LTP maintenance |  | no measurable effect on baseline synaptic transmission; also recorded: no effect on untetanized pathway |  |  |  |  |  | has no effect on late-LTP maintenance; also recorded: has no effect on PKMz-null-LTP |  | no effect |
